Laboratory results published in patent publication US11266710B2, “Angio-3 for treatment of retinal angiogenic diseases” (SINGAPORE HEALTH SERVICES PTE LTD, priority 2017, dated 2022).

Assays:
[1] = system: laser-induced CNV in C57/BL6J (B6J) wild type mice; assay: Laser-induced choroidal neovascularization (CNV) model in mice, area of leakage by FFA; assay type: in vivo; conditions: for Area of Leakage (mean) Week 1 / Area of Leakage (mean) Week 4: laser-induced CNV mice; for % Reduction (area of leakage): vehicle control = 0%
Method: FIG. 3A is a schematic of the experimental design on the efficacy of Angio-3 in a laser-induced choroidal neovascularization (CNV) model in mice (B6J WT mice). FIG. 3B are FFA images of baseline and at different time points post treatment. IV single injection of 100 μL of Angio-3 (25 mg/Kg Bwt) was given at Day 0 (prevention mode) and 4 days after laser (regression mode) and followed for 10 weeks. FIG. 3C is a graph showing the area of leakage by each eye for various groups. FIG. 3D are graphs of the mean area of leakage of all batches for each group. […] The attenuation retinal vascularization was better than scrambled peptide. n=6 eyes per batch; n=3 batches. Values are expressed as means±s.e.m., **P<0.01, *P<0.05, student's t-test. FIG. 3E is a graph of the result of the Retinal Function Test that measures ERG changes in Angio-3 treated and control.
FIG. 4A is a schematic of the experimental design on the efficacy of Angio-3 by IVT administration. […]
FIG. 11 A are FFA images of baseline and at different time points post treatment. Mice received single IVT injection of Angio-3 (at a dose of 1 μg in 1 μl or 100 ng in 1 μl), and chemically modified Angio-3 peptides Pep-N (at doses of 5 μg in μl; 1 μg in μl; and 100 ng in 1 μl, respectively) and Pep-Q peptides (at doses of 5 μg in μl; 1 μg in μl; and 100 ng in 1 μl, respectively). FIG. 11 B is a graph of the area of leakage by each eye. Single dose attenuates retinal angiogenesis in laser-induced mice CNV model via IVT route till 4 weeks. […] Eylea is the positive control. n=18 eyes per group; Values are expressed as means±s.e.m. n=3 independent experiment, **P<0.01, *P<0.05, student's t-test.
Laser induced choridal neo-vascularization (CNV) in C57/BL6J (B6J) wild type mice (n=90).
In B6J mice, single injection of 100 μl volume at 25 mg/kg Bwt concentration Angio-3 was injected via intravenous (i/v) route and this was tested in both Preventive mode (before laser) and Regression mode (4 days after laser). […]
Angio-3 was also injected via intravitreal (IVT) route, single injection of 1 μl volume at 2 different doses; 1 μg (High dose) and 100 ng (Low dose).
4 laser photocoagulation sites were placed concentrically around the optic disc of both eyes to induce CNVs. A diode laser (810 nm) was used with a relative potency scale of 120 mW for mice and 250 mW for rats, an exposure time of 0.05 s, and a spot size of […]. Laser spots were focused with crystal covers to avoid laser beam dispersion. Bubble formation was confirmed the rupture of Bruch's membrane.
Fundus photography and fundus fluorescein angiography (FFA) was imaged using a MICRON IV fundus camera (Phoenix Laboratories USA). For FFA, animals were intraperitoneally injected with 10% sodium fluorescein at a dose of 0.01 ml per 5-6 gm body weight.
In B6J mice, single intravitreous (IVT) injection of 100 ng, 1 μg, 5 μg PEP-Q, PEP-N (modified Angio-3), Angio-3 and Eylea were executed and this was tested in Prevention mode (before laser) Method of Llser induced CNV model and injection was described as above.

[2] = system: laser-induced CNV in Cynomolgus monkeys; assay: Laser-induced CNV model in Cynomolgus monkeys (wet AMD model); assay type: in vivo, Cynomolgus monkey; conditions: 2 mg Angio-3, 2 mg and 4 mg PeptideQ, 2 mg Eylea, single IVT
Method: FIGS. 25A, 25B, 25C, 25D, 25E, and 25F show the results of testing in a laser-induced chorodial neovascularization (CNV) model in Cynomolgus moneys developed as an experimental model of wet AMD. FIG. 25A is a schematic of the study design. FIG. 25B are representative fundus fluorescein angiography (FFA) images of all groups. FIG. 25C is a graph showing change in mean lesion grade of the eye in monkeys treated with a single dose 2 mg of Angio-3, dose 2 mg of anti-VEGF (Eylea), 2 mg of peptide (Q2) and 4 mg of peptide (Q4) and control. […] FIG. 25E is a graph of laser area quantified from the FFA images by ImageJ software. FIG. 25F are graphs of laser volume quantified from PS-OCT images by ImageJ software.
A laser-induced choroidal neovascularization (CNV) model was developed and validated in Cynomolgus monkeys as experimental model of wet AMD. […] The development of active CNV was assessed by fluorescein angiography, at Day 14 the baseline degree of neovascularization and leakiness were measured and the final fluorescein angiography assessment was performed on Day 28. Leakage area was quantified by ImageJ software. The laser volume was quantified by Spectralis-Heidelberg software using SD-OCT images.

[3] = 100 ng single IVT, prevention mode
[4] = 1 μg single IVT, prevention mode
[5] = 5 μg single IVT, prevention mode

Substance: Eylea: Eylea (anti-VEGF), positive control; clinical compound [reference compound]
- Area of Leakage (mean) Week 1 [1, 3]: 10273.37
- Area of Leakage (mean) Week 4 [1, 3]: 3433.52
- % Reduction (area of leakage) ([1]; 100 ng single IVT): 28.40%
- Area of Leakage (mean) Week 1 [1, 4]: 12502.09
- Area of Leakage (mean) Week 4 [1, 4]: 3005.85
- % Reduction (area of leakage) ([1]; 1 μg single IVT): 37.77%
- Area of Leakage (mean) Week 1 [1, 5]: 11724.39
- Area of Leakage (mean) Week 4 [1, 5]: 1834.08
- % Reduction (area of leakage) ([1]; 5 μg single IVT): 46.17%
- choroidal angiogenesis ([1]; B6J mice, single intravitreal injection at dose 100 ng, 1 g, and 5 μg, prevention mode): superior efficacy that is similar to PEP-Q and PEP-N
- comparative efficacy between treatment groups [2]: superior efficacy as compared to test peptides
